# Experimental data reported in EP4782453A1 (Beyang Therapeutics Co., Ltd., priority 2023, dated 2025).
# Where two headings read alike, the source gives them in different places.
# Legend:
# [1] = system: MOLM-13 (carrying MLL-AF9); experiment: Inhibition of proliferation of human tumor cells (Alamar Blue, 7 days), MOLM-13; format: cell-based; conditions: MOLM-13 cells (carrying MLL-AF9), method calls the value GI50
# Text: Experimental Example 2: Evaluation of Inhibitory Activity of Compounds Against Proliferation of Human Tumor Cells
# • Human acute lymphoblastic leukemia cells MV-4-11, purchased from American Type Culture Collection, Catalog Number: CRL-9591; • Human acute myeloid leukemia cells MOLM-13, purchased from COBIOER BIOSCIENCES CO., LTD, Catalog Number: CBP60678; • Human acute myeloid leukemia cells KG-1a, purchased from American Type Culture Collection, Catalog Number: CCL-246.1; • Inverted Microscope, purchased from Olympus Tokyo; • Countess™ Automated Cell Counter, purchased from Invitrogen, Model: C10281; and • Multilabel Reader, purchased from Bio-Tek, Model: Synergy HT.
# MV-4-11 cells were cultured in an IMDM medium containing 10% fetal bovine serum, KG-a cells were cultured in an IMDM medium containing 20% fetal bovine serum, or MOLM-13 cells were cultured in an RPMI-1640 medium containing 20% fetal bovine serum, each supplemented with 100 U·mL^-1 penicillin and 100 µg·mL^-1 streptomycin. These cells were cultured at 37°C with 5% CO2. The suspensions of individual cell lines were prepared in their respective media and seeded into 96-well plates at a density of 4,000 cells/well for MV-4-11 and MOLM-13 cells, or 3,000 cells/well for KG-1a cells. On the day of the experiment, a compound stock solution was diluted in a 3-fold or 4-fold gradient using DMSO. Each gradient-diluted stock solution was then further diluted 250-fold with a complete medium to prepare a series of working solutions at different concentrations. Subsequently, 100 µL of working solution (containing a 2-fold concentration series of the test compound) was added to each well, with duplicate wells set up for each concentration.
# Seven days after compound addition (on Day 7), an Alamar Blue assay reagent (MCE, HY-111391 / CS-0040317) was added to measure the fluorescence intensity in each well. Wells containing the cells in the growth medium supplemented with 0.1% DMSO (Day 7) served as high-read control wells. The readouts from the wells containing the cells in the growth medium supplemented with 0.1% DMSO on the day of compound addition (Day 0) served as low-reading control well. GraphPad Prism software was used to calculate the concentration required to inhibit 50% of cell proliferation (GI50), which serves as a cell proliferation inhibition activity index.
# [2] = target: T1, Menin-MLL (Homo sapiens, UniProt O00255); experiment: Inhibitory activity against Menin-MLL binding (fluorescence polarization); conditions: 150 nM His-Menin, 15 nM FITC-MLL, 25°C for 60 min
# T1 construct: His-Menin (M1-L615 end); purchased BIORTUS BP9210
# T1 sequence (O00255 1-615 isoform O00255-1): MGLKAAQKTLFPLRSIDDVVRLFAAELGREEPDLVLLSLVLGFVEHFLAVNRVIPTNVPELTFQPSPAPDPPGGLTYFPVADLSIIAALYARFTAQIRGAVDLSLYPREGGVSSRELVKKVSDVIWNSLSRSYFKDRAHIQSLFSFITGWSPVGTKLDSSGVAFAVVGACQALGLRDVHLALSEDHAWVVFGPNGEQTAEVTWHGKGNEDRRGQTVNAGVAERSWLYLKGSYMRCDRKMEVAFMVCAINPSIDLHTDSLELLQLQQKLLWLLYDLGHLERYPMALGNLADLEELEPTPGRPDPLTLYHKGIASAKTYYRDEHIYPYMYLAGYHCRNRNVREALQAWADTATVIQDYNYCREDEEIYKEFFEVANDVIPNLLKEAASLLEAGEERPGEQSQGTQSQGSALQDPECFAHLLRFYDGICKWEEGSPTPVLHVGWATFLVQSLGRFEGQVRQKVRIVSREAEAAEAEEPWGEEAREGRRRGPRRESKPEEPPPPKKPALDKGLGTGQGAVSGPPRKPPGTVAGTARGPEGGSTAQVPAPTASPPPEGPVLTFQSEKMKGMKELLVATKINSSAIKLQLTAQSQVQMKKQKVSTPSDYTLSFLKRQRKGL
# How it was run: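 Fluorescence polarization competition: compound and 150 nM His-tagged menin (residues M1-L615) sit 15 min at 25 °C in pH 7.5 HEPES buffer with NaCl, DTT and BSA; 15 nM FITC-labelled MLL peptide then binds for 60 min. IC50 fitted sigmoidally from mP values, duplicate wells.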
# [3] = fluorescence polarization, read-out: Menin-MLL IC50
# [4] = Menin-MLL IC50, fluorescence polarization
"IC50 ([1]; Homo sapiens, 168 h)","IC50 [2, 3]",Structure (SMILES),"IC50 ([1]; Homo sapiens, MOLM-13, 168 h)","IC50 [2, 4]",IC50 [1]
4.7 nM,1.9 nM,"Cc1ncc2c(-c3ccc(F)cc3C(=O)N(CC(F)F)C(C)C)cc(C3CN([C@H](CCCN4CCN(CCO)CC4)C(C)C)C3)cn12 [Example 459-1, N-(2,2-difluoroethyl)-5-fluoro-2-(6-{1-[(3R)-6-[4-(2-hydroxylethyl)piperazin-1-yl]-2-methylhexan-3-yl]azacyclobutan-3-yl}-3-methyl-imidazo[1,5-a]pyridin-8-yl)-N-(isopropyl)benzamide]",,,
4.3 nM,2.3 nM,"Cc1ncc2c(-c3ccc(F)cc3C(=O)N(C(C)C)C(C)C)cc(C3CN([C@H](CCCN4CCN(CCO)CC4)C(C)C)C3)cn12 [Example 463, 5-fluoro-2-(6-{1-[(3R)-6-[4-(2-hydroxylethyl)piperazin-1-yl]-2-methylhexan-3-yl]azacyclobutan-3-yl}-3-methyl-imidazo[1,5-a]pyridin-8-yl)-N,N-di(isopropyl)benzamide]",,,
,,"COCCN(C(=O)c1cc(F)ccc1-c1cc(C2CN([C@H](CCCN3C[C@H]4C[C@@H]3CO4)C(C)C)C2)cn2c(C)ncc12)C(C)C [Example 467-1, 5-fluoro-N-(2-methoxyethyl)-2-(3-methyl-6-{1-[(3R)-2-methyl-6-[(1R,4R)-2-oxa-5-azadicyclo[2.2.1]heptan-5-yl]hexan-3-yl]azacyclobutan-3-yl}imidazo[1,5-a]pyridin-8-yl)-N-(isopropyl)benzamide]",23 nM,1.5 nM,
3.8 nM,0.9 nM,"CCN(C(=O)c1cc(F)ccc1-c1cc(CC2CN([C@H](CCCN3CCN(CCO)CC3)C(C)C)C2)n2c(C)cncc12)C(C)C [Example 470, N-ethyl-5-fluoro-2-[6-({1-[(3R)-6-[4-(2-hydroxylethyl)piperazin-1-yl]-2-methylhexan-3-yl]azacyclobutan-3-yl}methyl)-4-methylpyrrolo[1,2-a]pyrazin-8-yl]-N-(isopropyl)benzamide]",,,
24 nM,1.5 nM,CCN(C(=O)c1cc(F)ccc1-c1cc(C2CN([C@H](CCCN3CCNCC3)C(C)C)C2)cn2c(C)ncc12)C(C)C [Example 472],,,
16 nM,1.1 nM,CCN(C(=O)c1cc(F)ccc1-c1cc(C2CN([C@H](CCCN3CCN(CC(=O)N(C)C)CC3)C(C)C)C2)cn2c(C)ncc12)C(C)C [Example 473],,,
,,"CCN(C(=O)c1cc(F)ccc1-c1cc(C2CN([C@H](CCCN3CCN(C4(CO)COC4)CC3)C(C)C)C2)cn2c(C)ncc12)C(C)C [Example 474, N-ethyl-5-fluoro-2-(6-{1-[(3R)-6-{4-[3-(hydroxymethyl)oxacyclobutan-3-yl]piperazin-1-yl}-2-methylhexan-3-yl]azacyclobutan-3yl}-3-methylimidazo[1,5-a]pyridin-8-yl)-N-(isopropyl)benzamide]",11 nM,0.9 nM,
25 nM,1 nM,"CCN(C(=O)c1cc(F)ccc1-c1cc(C2CN([C@H](CCCN3CCN(C4(C(N)=O)COC4)CC3)C(C)C)C2)cn2c(C)ncc12)C(C)C [Example 475, 3-{4-[(4R)-4-[3-(8-{2-[ethyl(isopropyl)aminoformyl]-4-fluorophenyl}-3-methylimidazo[1,5-a]pyridin-6-yl)azacyclobutan-1-yl]-5-methylhexyl]piperazin-1-yl}oxacyclobutan-3-formamide]",,,
10 nM,1.1 nM,"Cc1cncc2c(-c3ccc(F)cc3C(=O)N(C)C(C)C)cc(CC3CN([C@H](CCCN4CCN(CCO)CC4)C(C)C)C3)n12 [Example 477-1, 5-fluoro-2-[6-({1-[(3R)-6-[4-(2-hydroxylethyl)piperazin-1-yl]-2-methylhexan-3-yl]azacyclobutan-3-yl}methyl)-4-methylpyrrolo[1,2-a]pyrazin-8-yl]-N-methyl-N-(isopropyl)benzamide]",,,
,,CCN(C(=O)c1cc(F)ccc1-c1cc(C2CN([C@H](CCCN3CCC(C#N)(CO)CC3)C(C)C)C2)cn2c(C)ncc12)C(C)C [Example 481],5.5 nM,1.9 nM,
36 nM,2.4 nM,"CCN(C(=O)c1cc(F)ccc1-c1cc(C2CN([C@H](CCCN3CCN(CCO)CC34COC4)C(C)C)C2)cn2c(C)ncc12)C(C)C [Example 482, N-ethyl-5-fluoro-2-(6-{1-[(3R)-6-[8-(2-hydroxyethyl)-2-oxa-5,8-diazaspiro[3.5]non-5-yl]-2-methylhexan-3-yl]azacyclobutan-3-yl}-3-methylimidazo[1,5-a]pyridin-8-yl)-N-(isopropyl)benzamide]",,,
19 nM,3.4 nM,"CCN(C(=O)c1cc(F)ccc1-c1cc(OC2CN(C(CCCN3CCN(CCO)CC3)C(C)C)C2)n2c(C)cncc12)C(C)C (centres unmarked) [Example 488, N-ethyl-5-fluoro-2-{6-[(1-{6-[4-(2-hydroxyethyl)piperazin-1-yl]-2-methylhexan-3-yl}azacyclobutan-3-yl)oxy]-4-methylpyrrolo[1,2-a]pyrazin-8-yl}-N-(isopropyl)benzamide]",,,
5.9 nM,2 nM,CCN(C(=O)c1cc(F)ccc1-c1cc(C2CN([C@H](CCCN3CCN(CCC#N)CC3)C(C)C)C2)cn2c(C)ncc12)C(C)C [Example 489],,,
27 nM,2.4 nM,CCN(C(=O)c1cc(F)ccc1-c1cc(C2CN([C@H](CCCN3CCN(C(=O)C4(C#N)COC4)CC3)C(C)C)C2)cn2c(C)ncc12)C(C)C [Example 495],,,
41 nM,0.9 nM,CCN(C(=O)c1cc(F)ccc1-c1cc(C2CN([C@H](CCCN3CCN(CCOC)CC3)C(C)C)C2)cn2c(C)ncc12)C(C)C [Example 497],,,
,,CCN(C(=O)c1cc(F)ccc1-c1cc(C2CN(C(CCCN3CCNC(CC#N)C3)C(C)C)C2)cn2c(C)ncc12)C(C)C (centres unmarked) [Example 498],23 nM,2.8 nM,
,,CCN(C(=O)c1cc(F)ccc1-c1cc(C2CN(C(CCCN3CCNC(CC#N)C3)C(C)C)C2)cn2c(C)ncc12)C(C)C (centres unmarked) [Example 499],,2.1 nM,29 nM
9.8 nM,0.9 nM,CCN(C(=O)c1cc(F)ccc1-c1cc(C2CN([C@H](CCCN3CCN[C@@H](COC)C3)C(C)C)C2)cn2c(C)ncc12)C(C)C [Example 502],,,
8.5 nM,1 nM,CCN(C(=O)c1cc(F)ccc1-c1cc(C2CN([C@H](CCCN3CCN[C@H](COC)C3)C(C)C)C2)cn2c(C)ncc12)C(C)C [Example 503],,,
13 nM,1.2 nM,"COC[C@H]1CN(CCC[C@H](C(C)C)N2CC(c3cc(-c4ccc(F)cc4C(=O)N(C(C)C)C(C)C)c4cnc(C)n4c3)C2)CCN1 [Example 504-2, 5-fluoro-2-(6-{1-[(3R)-6-[(3R)-3-(methoxymethyl)piperazin-1-yl]-2-methylhexan-3-yl]azacyclobutan-3-yl}-3-methylimidazo[1,5-a]pyridin-8-yl)-N,N-di(isopropyl)benzamide]",,,
9.9 nM,1 nM,COC[C@@H]1CN(CCC[C@H](C(C)C)N2CC(c3cc(-c4ccc(F)cc4C(=O)N(C(C)C)C(C)C)c4cnc(C)n4c3)C2)CCN1 [Example 505-2],,,
13 nM,0.9 nM,CCN(C(=O)c1cc(F)ccc1-c1cc(C2CN([C@H](CCCN3CCN(C)[C@@H](CO)C3)C(C)C)C2)cn2c(C)ncc12)C(C)C [Example 506],,,
